Entries after “also recorded” stand apart in the source; their conditions may differ.
How the values were obtained:
Type in all cases: cell-based, human
[1] = system: K562 cells; test: Cell differentiation of K562 cells on OP9 cells, optical microscopy; settings: for cell morphology (optical microscope): 5 days
Method: A stromal line of OP9 cells derived from […] was aliquoted at a density of 1×10^5 cells in 6-well plates and incubated for 24 hrs. After the OP9 cells were uniformly attached onto the bottom of the plates, K562 cells were layered at a density of 1×10^5 cells on the OP9 cells in 6-well plates. The cells were treated with 40 μg/ml of (R)-NALPCE, or 500 pmole, 10 nmole or 50 nmole of PMA before incubation for 5 days. They were observed under an optical microscope with 200× magnification.

[2] = system: K562 cells; test: Differentiation inductivity, lineage receptor expression by FACS, K562 cells
Method: K562 cells were aliquoted at a density of 2×10^5 per well in 6-well plates and treated with 40 μg/ml of (R)-NALPCE or 30 nM of PMA (12-phorbol myristate-13-acetate, Calbiochem.), followed by incubation for 4 days. After centrifugation (1,000 rpm, 10 min), the cell pellets thus obtained were washed three times with 0.01% bovine serum albumin (BSA) in PBS. The cells were incubated with 10 μl of anti-CD41-fluorescein-5-isothiocyanate (FITC) (Dako Chemicals, Carpenteria, Calif.), 20 μl of anti-CD16-Cy-Chrome (Cy) (BD Pharmingen), 10 μl of anti-glycophorin ACD235a-phycoerythrin (PE) (Dako Chemicals, Carpenteria, Calif.), and 20 μl of anti-CD14-allophycocyanin (APC) (BD Pharmingen) in 200 μl of 0.01% bovine serum albumin (BSA)-PBS at 4° C. for 50 min while spinning to realize homogeneous fluorescent staining. After centrifugation (1,000 rpm, 10 min), the cell pellets thus obtained were washed three times with 0.01% bovine serum albumin (BSA) in PBS. Fluorescence was analyzed on a fluorescence-activated cell sorter (FACS) (Aria) using a Cellquest program.

[3] = system: HEL cells; test: Differentiation inductivity, lineage receptor expression by FACS, HEL cells; settings: 5 μg/ml (R)-NALPCE 5 days or 10 nM PMA 3 days
Method: HEL cells were aliquoted at a density of 3×10^5 cells per well in 6-well plates and treated separately with 5 μg/ml of (R)-NALPCE and 10 nM of 12-phorbol myristate-13-acetate (PMA) (Calbiochem.), followed by incubation for 5 and 3 days, respectively. After centrifugation (1,000 rpm, 10 min), cell pellets thus obtained were washed three times with 0.01% bovine serum albumin (BSA) in PBS and incubated with 10 μl of anti-CD61-fluorescein-5-isothiocyanate (FITC) (Dako Chemicals, Carpenteria, Calif.), 20 μl of anti-CD16-Cy-Chrome (Cy) (BD Pharmingen), 10 μl of anti-glycophorin ACD235a-phycoerythrin (PE) (Dako Chemicals, Carpenteria, Calif.), and 20 μl of anti-CD14-allophycocyanin (APC) (BD Pharmingen) in 200 μl of 0.01% bovine serum albumin (BSA)-PBS at 4° C. for 50 min with spinning so as to achieve homogenous fluorescent staining over the cells. After centrifugation (1,000 rpm, 10 min), the cell pellets thus obtained were washed three times with 0.01% bovine serum albumin (BSA) in PBS. Fluorescence was analyzed on a fluorescence-activated cell sorter (FACS) (Aria) using a Cellquest program.

[4] = system: HEL cells; test: Cell differentiation of HEL cells, optical microscopy; settings: 5 μg/ml (R)-NALPCE, 10 nmole PMA or 50 ng/ml TPO, 5 days
Method: HEL cells were aliquoted at a density of 3×10^5 cells per well in 6-well plates and treated with 5 μg/ml of (R)-NALPCE, 10 nmole of PMA, or 50 ng/ml of TPO, followed by incubation in a day-dependent manner for 5 days. They were observed under an optical microscope with 200× magnification.

Row | Compound | production or secretion of thrombocytes by differentiated megakaryocytes ([1]; (R)-NALPCE with OP9 cells, PMA treatment) | cell morphology (optical microscope) ([1]; K562 cells on OP9 cells, 500 pmole of PMA) | cell morphology (optical microscope) ([1]; K562 cells on OP9 cells, 10 nmole of PMA) | thrombocyte-like morphology ([1]; K562 cells on OP9 cells, 10 nmole of PMA, 5 days or more after treatment) | cell morphology (optical microscope) ([1]; K562 cells on OP9 cells, 50 nmole of PMA) | expression of CD41, CD16, glycophorin A and CD14 receptors ([2]; K562 cells, 40 μg/ml (R)-NALPCE or 30 nM PMA, 4 days) | number of cells expressing CD41, PMA versus (R)-NALPCE ([2]; leukemia cells derived from human bone marrow, without OP9 cells) | expression of CD61, CD235a, CD16 and CD14 receptors [3] | cell morphology (optical microscope) [4]
1 | CCCCCCCCCCCCCC(=O)O[C@@H]1[C@@H](C)[C@@]2(O)[C@@H](C=C(CO)C[C@]3(O)C(=O)C(C)=C[C@@H]23)[C@@H]2C(C)(C)[C@]12OC(C)=O [PMA, phorbol 12-myristate 13-acetate] | could not secrete thrombocytes; also recorded: could not produce thrombocyte-like cells | did not differentiate, but proliferated, like a control | increase in size, but with morphology different from that of those treated with (R)-NALPCE | no morphology similar to thrombocytes was observed | differentiate into macrophages | CD41 (megakaryocyte-specific receptor), CD16 (neutrophil-specific receptor), CD14 (monocyte-specific receptor) were expressed, particularly with a great increase of CD41 | increased in number more in a medium containing PMA than in a medium containing (R)-NALPCE | CD61 (megakaryocyte-specific receptor), CD16 (neutrophil-specific receptor), and CD14 (monocyte-specific receptor) were expressed, particularly with a great increase of CD61 | increased in size, but with morphology different from that upon treatment with (R)-NALPCE, and differentiated into macrophages
2 | TPO: TPO, comparison agent applied at 50 ng/ml to HEL cells; abbreviation not expanded in the text |  |  |  |  |  |  |  |  | did not undergo significant change

— patent US20080268535A1, “Method for Inducing the Differentiation of Human Myelogenous Leukemia Cells Into Megakarocytes or Thrombocytes” (EWHA University - Industry Collaboration Foundation, priority 2005, published 2008)
